This test relates to formation of peroxide lipids (rat brain homogenate). Kind of test: activity of inhibiting formation of peroxide lipids (TBA assay, rat brain homogenate supernatant). The test is classed as biochemical, rat (Wistar). The settings on record: final concentration 10^-4 M, pH 7.4, 37° C., 30 minutes, malondialdehyde by TBA assay vs control, 100 µM. As for the experimental part: With respect to the compounds of the present invention, the activity of inhibiting formation of peroxide lipids was tested according to the following procedures.
Male rats of the Wistar system having a body weight of 200 to 250 g were used. The rat brain was extracted by beheading and homogenized by 50 mM phosphate buffer solution (pH 7.4)(PBS), and centrifugal separation was conducted for 15 minutes under 1000 G. The supernatant was frozen at -30° C. and stored, and when the test was carried out, the frozen supernatant was thawed in running water and diluted with PBS so that the volume was trebled, whereby a living body sample was prepared.
Two samples were formed by adding 10 μl of a solution of the test compound (the final concentration was 10^-4 M) to 990 μl of the living body sample. One sample was incubated at 37° C. for 30 minutes and 0.2 ml of a 35% solution of perchloric acid was added to stop the reaction. The other sample was not incubated but the solution of perchloric acid was immediately added to stop the reaction. Both the reaction liquids were subjected to centrifugal separation at 3000 rpm for 15 minutes. With respect to each sample, by using 0.5 ml of the supernatant, the amount of the peroxide lipid was determined according to the TBA assay [Okawa et al., Anal. Biochem., 95. 351 (1979)], and the difference between both the measured values was determined as the amount of malondialdehyde (MDS)(the unit: nmole/mg protein). The peroxide lipid inhibition ratio was calculated from this MDA amount (A) and the control value (B) (the MDA amount obtained when the test compound was not added) according to the following formula: [formula]

`CCOC(=O)c1cnc(-c2ccccc2)nc1CN1CCCc2ccccc21` [Compound 16]: the “Inhibition Ratio (%) (peroxide lipid inhibition ratio)” value (“Inhibition Ratio (%)” for short) was 100.0%.

As for `Clc1ccc2c(c1)CCCN2Cc1ccco1` [Compound 21], the “Inhibition Ratio (%)” value is recorded as 87.2%.

For `Cn1cncc1CN1CCCc2ccccc21` [Compound 1], the “Inhibition Ratio (%)” value is given as 99.0%.

`CCOC(=O)c1cncnc1CN1CCCc2ccccc21` [Compound 17]: the “Inhibition Ratio (%)” value was determined as 100.0%.

In the case of `c1coc(CN2CCOc3ccccc32)c1` [Compound 11, 4-(2-furyl)methyl-3,4-dihydro-2H-benzooxazine], the “Inhibition Ratio (%)” value is recorded as 56.0%.

Take `c1coc(CN2CCSc3ccccc32)c1` [Compound 19, 4-(2-furyl)methyl-3,4-dihydro-2H-1,4-benzothiazine]: the “Inhibition Ratio (%)” value amounted to 80.9%.

For `CN(C)C(=O)n1cnc(CN2c3ccccc3CCc3ccccc32)c1` [Compound 9, 1-(N,N-dimethylcarbamoyl)-4-(10,11-dihydro-5H-dibenzo[b,f]azepin-5-ylmethyl)imidazole], the “Inhibition Ratio (%)” value was 94.0%.

On to `c1csc(CN2CCc3ccccc32)c1` [Compound 6], for which the “Inhibition Ratio (%)” value is given as 95.4%.

In the case of `Cc1nc(CN2CCc3ccccc32)cs1` [Compound 4], the “Inhibition Ratio (%)” value was found to be 84.6%.

`Cc1nc(CN2CCCc3ccccc32)cs1` [Compound 3]: the “Inhibition Ratio (%)” value is 88.7%.

As to `c1coc(CCCN2CCCc3ccccc32)c1` [Compound 13], the “Inhibition Ratio (%)” value came out at 90.5%.

Take `c1ccc(CN2CCCc3ccccc32)nc1` [Compound 14]: the “Inhibition Ratio (%)” value was 100.0%.

In the case of `Cc1ncoc1CN1CCCc2ccccc21` [Compound 12], the “Inhibition Ratio (%)” value was determined as 97.8%.

`c1coc(CN2CCc3ccccc32)c1` [Compound 10]: the “Inhibition Ratio (%)” value was 87.0%.

On to `c1csc(CN2CCCc3ccccc32)c1` [Compound 5], for which the “Inhibition Ratio (%)” value is 93.6%.

Consider `O=C1C=C(OCCN2CCCc3ccccc32)C(=O)c2ccccc21` [Compound 18], for which the “Inhibition Ratio (%)” value turned out to be 97.9%.

On to `CCOC(=O)c1cnc(C)nc1CN1CCCc2ccccc21` [Compound 15], for which the “Inhibition Ratio (%)” value is 100.0%.

With `Cc1ccc2c(c1)CCCN2Cc1ccco1` [Compound 20], the “Inhibition Ratio (%)” value turned out to be 85.1%.

For the origin of these results see patent US4962200A, “Nitrogen-containing compound” (Mitsui Petrochemical Industries, Ltd., priority 1987, dated 1990).
